Patent US20240391899A1, “POTENT AND SELECTIVE INHIBITORS OF IRAK4” (Dana-Farber Cancer Institute, Inc., priority 2021, published 2024)

How the values were obtained:
TMD8 = assay: CellTiter-Glo Luminescent cell viability assay, TMD8; assay type: cell-based; settings: Homo sapiens, TMD8 cell line, 72 hours at 37° C., read-out: ED50 (the source's name)
Experimental: (§1) The CellTiter-Glo® Luminescent cell viability assay (Promega, Madison WI) was used to assess the dose-response of inhibitors alone or in combination. Cells were seeded into 384 well plates with the EL406 Combination Washer Dispenser (BioTek Instruments, Inc.) and inhibitors were injected into culture media with the JANUS Automated Workstation (PerkinElmer Inc., Waltham MA). Cells were incubated with inhibitors for 72 hours at 37° C. Luminescent measurements to assess cell viability were performed using the 2104 Envision® Multilabel Reader (PerkinElmer Inc.). Drug interactions were assessed by CalcuSyn 2.0 software (Biosoft, Cambridge UK) based on Chou TC.

HBL-1 = assay: CellTiter-Glo Luminescent cell viability assay, HBL-1; assay type: cell-based; settings: HBL1, HBL-1 cell line, 72 hours at 37° C., read-out: ED50 (the source's name)
Experimental: as §1

IRAK1 = molecular target: T1, IRAK1 (Homo sapiens, UniProt P51617); assay: IRAK1 enzymatic assay (Adapta Universal Kinase Assay, ThermoFisher); assay type: biochemical; settings: 60 minutes at room temperature
T1 construct: purchased ThermoFisher
T1 sequence (P51617 whole entry): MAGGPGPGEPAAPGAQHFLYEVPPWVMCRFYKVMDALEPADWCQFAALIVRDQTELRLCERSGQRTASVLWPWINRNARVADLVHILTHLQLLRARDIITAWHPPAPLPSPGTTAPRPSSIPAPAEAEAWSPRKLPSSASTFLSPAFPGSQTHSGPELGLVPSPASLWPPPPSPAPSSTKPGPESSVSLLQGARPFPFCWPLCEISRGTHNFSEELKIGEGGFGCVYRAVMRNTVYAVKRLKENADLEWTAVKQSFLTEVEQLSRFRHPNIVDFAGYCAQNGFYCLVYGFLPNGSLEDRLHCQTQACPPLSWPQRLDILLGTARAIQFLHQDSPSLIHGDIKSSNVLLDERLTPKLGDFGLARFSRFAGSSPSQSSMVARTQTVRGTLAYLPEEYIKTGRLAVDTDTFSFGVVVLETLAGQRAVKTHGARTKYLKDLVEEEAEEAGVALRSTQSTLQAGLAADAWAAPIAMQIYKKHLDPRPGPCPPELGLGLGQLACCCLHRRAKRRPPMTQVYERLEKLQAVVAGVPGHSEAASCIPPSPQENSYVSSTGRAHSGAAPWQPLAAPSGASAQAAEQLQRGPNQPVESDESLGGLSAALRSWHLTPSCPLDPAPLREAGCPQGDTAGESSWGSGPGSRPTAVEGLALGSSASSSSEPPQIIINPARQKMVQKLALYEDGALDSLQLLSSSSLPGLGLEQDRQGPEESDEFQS
Experimental: To measure the IC50 values of the compounds herein against IRAK1, the Adapta Universal Kinase Assay (ThermoFisher) was used. Briefly, 100 nL of different concentrations of the compounds in 100% DMSO were added to each well of a 384-well plate (Corning Cat. #4512). 2.4 μL of 30 mM HEPES, 2.5 μL of 4×ATP solution (in water), and 5 μL of 2×IRAK1/Histone H3 (1-20) peptide mixture (prepared in 50 mM HEPES pH 7.5, 0.01% BRIJ-35, 10 mM MgCl2, 1 mM EGTA) were added to each well. The plate was shaken for 30 seconds and centrifuged for 1 minute at 1000×g. The plate was then incubated at room temperature for 60 minutes. 5 μL of Detection Mix was added to each well. The plate was shaken for 30 seconds and centrifuged for 1 minute at 1000×g. The plate was then incubated at room temperature for 60 minutes. The plate was subsequently read on a fluorescence plate reader, and the emissions ratio was calculated to determine the ratio of ATP to ADP. Emissions Ratio=AF647 Emission (665 nm)/Europium Emission (615 nm).

Ramos = assay: CellTiter-Glo Luminescent cell viability assay, Ramos; assay type: cell-based; settings: Homo sapiens, Ramos cell line, 72 hours at 37° C., read-out: ED50 (the source's name)
Experimental: as §1

SU-DHL-6 = assay: CellTiter-Glo Luminescent cell viability assay, SU-DHL-6; assay type: cell-based; settings: Homo sapiens, SU-DHL-6 cell line, 72 hours at 37° C., read-out: ED50 (the source's name)
Experimental: as §1

multiple cell lines = assay: Cellular IRAK4 inhibitory activity screened across multiple cell lines; assay type: cell-based
Experimental: as §1, with “TC. Cellular IRAK4 inhibitory activities of compound 015 and two commercial IRAK4 inhibitors, CA-4948 and PF06650833, were screened across multiple cell lines.” for “TC.”

RPMI-8226 = assay: CellTiter-Glo Luminescent cell viability assay, RPMI-8226; assay type: cell-based; settings: Homo sapiens, RPMI-8226 cell line, 72 hours at 37° C., read-out: ED50 (the source's name)
Experimental: as §1

OCI-Ly19 = assay: CellTiter-Glo Luminescent cell viability assay, OCI-Ly19; assay type: cell-based; settings: Homo sapiens, OCI-Ly19 cell line, 72 hours at 37° C., read-out: ED50 (the source's name)
Experimental: as §1

JeKo-1 = assay: CellTiter-Glo Luminescent cell viability assay, JeKo-1; assay type: cell-based; settings: Homo sapiens, JeKo-1 cell line, 72 hours at 37° C., read-out: ED50 (the source's name)
Experimental: as §1

BCWM.1 = assay: CellTiter-Glo Luminescent cell viability assay, BCWM.1; assay type: cell-based; settings: BCWM1, BCWM.1 cell line, 72 hours at 37° C., read-out: ED50 (the source's name)
Experimental: as §1

IRAK4 = molecular target: T2, IRAK4 (Homo sapiens, UniProt Q9NWZ3); assay: IRAK4 enzymatic assay (Z'-LYTE, ThermoFisher); assay type: biochemical; settings: 60 minutes at room temperature
T2 construct: purchased ThermoFisher
T2 sequence (Q9NWZ3 1-460): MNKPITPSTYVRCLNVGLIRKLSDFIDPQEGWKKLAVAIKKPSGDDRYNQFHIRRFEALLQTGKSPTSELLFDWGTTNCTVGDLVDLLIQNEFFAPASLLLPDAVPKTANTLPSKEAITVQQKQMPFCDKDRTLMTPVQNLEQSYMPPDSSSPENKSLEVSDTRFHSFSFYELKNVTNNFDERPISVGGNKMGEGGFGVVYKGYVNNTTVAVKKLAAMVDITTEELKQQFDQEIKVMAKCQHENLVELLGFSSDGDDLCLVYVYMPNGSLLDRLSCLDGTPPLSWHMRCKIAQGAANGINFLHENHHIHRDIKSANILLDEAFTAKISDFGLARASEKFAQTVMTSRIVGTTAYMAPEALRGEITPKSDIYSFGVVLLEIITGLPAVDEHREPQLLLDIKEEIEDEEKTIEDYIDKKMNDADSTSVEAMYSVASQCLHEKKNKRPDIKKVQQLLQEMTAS
Experimental: To measure the IC50 values of compounds herein against IRAK4, a Z′-LYTE assay (ThermoFisher) was used. Briefly, 2.5 μL of different concentrations of the compounds in 1% DMSO were added to 2.4 μL kinase buffer (50 mM HEPES pH 7.5, 0.01% BRIJ-35, 10 mM MgCl2, 1 mM EGTA) in each well of a 384-well plate (Corning Cat. #3676). 5 μL of 2×IRAK4/Ser/Thr 07 mixture (prepared in 50 mM HEPES pH 7.5, 0.01% BRIJ-35, 10 mM MnCl2, 2 mM DTT, and 0.02% NaN3) and 2.5 μL of 4×ATP solution (4×ATP, 50 mM HEPES, pH 7.5, 0.01% BRIJ-35, 10 mM MgCl2, 1 mM EGTA) were added to each well. The plate was shaken for 30 seconds, and then incubated at room temperature for 60 minutes. 5 μL of a 1:100000 dilution of Development Reagent A was added to each well. The plate was shaken for 30 seconds and incubated for 60 minutes at room temperature. The plate was subsequently read on a fluorescence plate reader, and the emissions ratio was calculated to determine the ratio of Ser/Thr 07 phosphorylated by the reaction. Emissions Ratio=Coumarin Emission (443 nm)/Flourescein Emission (520 nm).

OCI-Ly7 = assay: CellTiter-Glo Luminescent cell viability assay, OCI-Ly7; assay type: cell-based; settings: Homo sapiens, OCI-Ly7 cell line, 72 hours at 37° C., read-out: ED50 (the source's name)
Experimental: as §1

MWCL-1 = assay: CellTiter-Glo Luminescent cell viability assay, MWCL-1; assay type: cell-based; settings: MWCL-1 cell line, 72 hours at 37° C., read-out: ED50 (the source's name)
Experimental: as §1

`Cc1ccc(-n2nc(C3CCN(C(C)C)CC3)cc2NC(=O)c2cccc(-c3cnn(CC(N)=O)c3)n2)nc1` [Compound 015, 6-(1-(2-amino-2-oxoethyl)-1H-pyrazol-4-yl)-N-(3-(1-isopropylpiperidin-4-yl)-1-(5-methylpyridin-2-yl)-1H-pyrazol-5-yl)picolinamide] showed an EC50 (TMD8) of 3.92 µM, an EC50 (HBL-1) of 2.2 µM and an IC50 (IRAK1) of 0.45 µM. The EC50 (Ramos) was 0.362 µM, the EC50 (SU-DHL-6) was 1.72 µM and the “Potency compared with CA-4948 and PF06650833” value (multiple cell lines) was “more potent in most cell lines”. The EC50 (RPMI-8226) was 6.78 µM, the EC50 (OCI-Ly19) was 1.22 µM and the EC50 (JeKo-1) was 6.26 µM. It also gave an EC50 (BCWM.1) of 3.33 µM, an IC50 (IRAK4) of 0.009 µM and an EC50 (OCI-Ly7) of 3.11 µM. The EC50 (MWCL-1) was 6.92 µM.
With `Cc1cc(-c2nc(C(=O)Nc3cc4oc(N5CCOCC5)nc4nc3N3CC[C@@H](O)C3)co2)ccn1` [CA-4948] the EC50 (TMD8) was 9.37 µM, the EC50 (HBL-1) was 11.1 µM and the EC50 (SU-DHL-6) was 8.69 µM. It also gave an EC50 (RPMI-8226) of 14 µM, an EC50 (OCI-Ly19) of 2.2 µM and an EC50 (JeKo-1) of 6.57 µM. It also gave an EC50 (BCWM.1) of 1.99 µM, an EC50 (OCI-Ly7) of 13 µM and an EC50 (MWCL-1) of 11.9 µM.
`CC[C@@H]1[C@H](F)C(=O)N[C@@H]1COc1nccc2cc(C(N)=O)c(OC)cc12` [PF06650833] was tested, and the EC50 (TMD8) was 24.1 µM, the EC50 (HBL-1) was 14.8 µM and the EC50 (Ramos) was 28.7 µM. It also gave an EC50 (RPMI-8226) of 80.5 µM, an EC50 (OCI-Ly19) of 5.87 µM and an EC50 (BCWM.1) of 11 µM. For the same compound, the EC50 (OCI-Ly7) was 9.8 µM and the EC50 (MWCL-1) was 18.3 µM.
